Paper PMC11406361, “Several orphan solute carriers functionally identified as organic cation transporters: Substrates specificity compared with known cation transporters” (The Journal of Biological Chemistry, 2024)

Legend:
SLC44A1 [1] = biological target: T1, SLC44A1 (Homo sapiens, UniProt Q8WWI5)
SLC19A3 = biological target: T2, SLC19A3 (Homo sapiens, UniProt Q9BZV2); test: Uptake ratio screen, SLC19A3-overexpressing HEK293 over empty vector cells; type: cell-based; settings: 2.5 μM, 2 min
T2 construct: expressed in transfected cells
Experimental: (§1) Typically discussed substrates of the proton organic-cation antiporter ([14]) are highlighted in dark green in Figure 1.
In preparation for transport experiments, 24-well plates were pre-coated with poly-D-lysine (Sigma-Aldrich) and 300,000 cells were plated per well and incubated for 48 h. Firstly, the 24-well plate was placed on a heating plate at 37 °C, and the cells were washed with 37 °C HBSS^+ buffer (Hank’s balanced salt solution supplemented with 10 mM Hepes and adjusted to pH 7.4; Thermo Fisher Scientific). The substance-of-interest, which was diluted in 37 °C HBSS^+ to a desired concentration, was added to the cells for exactly 2 min. […] For variations in seeded cell numbers between the cell lines, several wells were lysed in RIPA buffer and used for total protein quantification using a bicinchoninic assay ([74]) and bovine serum albumin as calibration.
The intracellular drug concentrations after transport experiments were analyzed by high-performance liquid chromatography coupled to tandem mass spectrometry analysis. […] After separation, the detection of substances was performed with an API 4000 tandem mass spectrometer (AB SCIEX, https://sciex.com/support/software-support/software-downloads), followed by quantification of results with the Analyst software (AB SCIEX, version 1.6.2). […]

SLC35F3 = SLC35F3 (Homo sapiens, UniProt Q8IY50)
SLC35E4 [2] = biological target: T3, SLC35E4 (Homo sapiens, UniProt Q6ICL7); test: Uptake ratio screen, SLC35E4-overexpressing HEK293 over empty vector cells; type: cell-based; design: by amplifying the entire gene-of-interest within the HEK293 genome via a long-range PCR; settings: 2.5 μM, 2 min
T3 sequence (Q6ICL7 1-350): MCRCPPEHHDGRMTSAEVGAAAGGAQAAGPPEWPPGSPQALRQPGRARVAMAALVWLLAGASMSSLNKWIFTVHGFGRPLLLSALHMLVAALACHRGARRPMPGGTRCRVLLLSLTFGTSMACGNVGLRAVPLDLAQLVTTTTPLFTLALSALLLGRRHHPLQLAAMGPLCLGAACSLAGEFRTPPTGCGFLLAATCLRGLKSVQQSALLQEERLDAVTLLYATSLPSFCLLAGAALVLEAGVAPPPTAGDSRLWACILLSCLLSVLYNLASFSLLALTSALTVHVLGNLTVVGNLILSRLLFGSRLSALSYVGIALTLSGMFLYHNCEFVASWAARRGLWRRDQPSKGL
Experimental: as §1
(§2) In preparation for transport experiments, 24-well plates were pre-coated with poly-D-lysine (Sigma-Aldrich) and 300,000 cells were plated per well and incubated for 48 h. Firstly, the 24-well plate was placed on a heating plate at 37 °C, and the cells were washed with 37 °C HBSS^+ buffer (Hank’s balanced salt solution supplemented with 10 mM Hepes and adjusted to pH 7.4; Thermo Fisher Scientific). The substance-of-interest, which was diluted in 37 °C HBSS^+ to a desired concentration, was added to the cells for exactly 2 min. […] The uptake was stopped with ice-cold HBSS^+, and the 24-well plate was removed from the heating plate. The cells were washed twice with the cold HBSS^+ before they were lysed for 15 min with 80% (v/v) acetonitrile containing the respective internal standard for mass spectrometry. For variations in seeded cell numbers between the cell lines, several wells were lysed in RIPA buffer and used for total protein quantification using a bicinchoninic assay ([74]) and bovine serum albumin as calibration.
The intracellular drug concentrations after transport experiments were analyzed by high-performance liquid chromatography coupled to tandem mass spectrometry analysis. The HPLC consisted of a Shimadzu Nexera HPLC System with a SIL-30AC autosampler, a LC-30AD pump, a CTO-20AC column oven, and a CBM-20A controller (Shimadzu). The reverse-phase chromatography of compounds was accomplished with a Brownlee SPP RP-Amide column with 4.6 × 100 mm inner dimensions, a particle size of 2.7 μm, and a preceding Phenomenex C-18 guard column. […] After separation, the detection of substances was performed with an API 4000 tandem mass spectrometer (AB SCIEX, https://sciex.com/support/software-support/software-downloads), followed by quantification of results with the Analyst software (AB SCIEX, version 1.6.2). […]
(§3) Transport-mediated net uptake was determined as fold-increase of transporter-overexpressing cells over empty vector–transfected control cells.

SLC44A1 [3] = biological target: T1, SLC44A1; settings: 2.5 μM, 2 min, HEK293
Experimental: as §1, §2
(§4) The intracellular drug concentrations after transport experiments were analyzed by high-performance liquid chromatography coupled to tandem mass spectrometry analysis. The HPLC consisted of a Shimadzu Nexera HPLC System with a SIL-30AC autosampler, a LC-30AD pump, a CTO-20AC column oven, and a CBM-20A controller (Shimadzu). The reverse-phase chromatography of compounds was accomplished with a Brownlee SPP RP-Amide column with 4.6 × 100 mm inner dimensions, a particle size of 2.7 μm, and a preceding Phenomenex C-18 guard column. The mobile phase was composed of an organic additive with acetonitrile:methanol 6:1 (v/v) in total concentrations between 3% and 50% (v/v) and 0.1% (v/v) formic acid in the aqueous component of the eluent. During separation, the column oven was held at 40 °C and the mobile phase was maintained at a flow rate of 300 or 400 μl/min. After separation, the detection of substances was performed with an API 4000 tandem mass spectrometer (AB SCIEX, https://sciex.com/support/software-support/software-downloads), followed by quantification of results with the Analyst software (AB SCIEX, version 1.6.2). The composition of chromatographic conditions, as well as detailed mass spectrometric detection parameters, are listed in Table S5.
as §3

SLC35E1 = SLC35E1 (Homo sapiens, UniProt Q96K37); settings: 2.5 μM, 2 min, HEK293
Experimental: as §1, §2, §4, §3

SLC35G4 = SLC35G4 (Homo sapiens, UniProt P0C7Q5); settings: 2.5 μM, 2 min, HEK293
Experimental: as §1, §2, §4, §3

SLC44A2 = SLC44A2 (Homo sapiens, UniProt Q8IWA5); settings: 2.5 μM, 2 min, HEK293
Experimental: as §1, §2, §4, §3

SLC35F2 = biological target: T4, SLC35F2 (Homo sapiens, UniProt Q8IXU6); settings: human
T4 sequence (Q8IXU6 1-374): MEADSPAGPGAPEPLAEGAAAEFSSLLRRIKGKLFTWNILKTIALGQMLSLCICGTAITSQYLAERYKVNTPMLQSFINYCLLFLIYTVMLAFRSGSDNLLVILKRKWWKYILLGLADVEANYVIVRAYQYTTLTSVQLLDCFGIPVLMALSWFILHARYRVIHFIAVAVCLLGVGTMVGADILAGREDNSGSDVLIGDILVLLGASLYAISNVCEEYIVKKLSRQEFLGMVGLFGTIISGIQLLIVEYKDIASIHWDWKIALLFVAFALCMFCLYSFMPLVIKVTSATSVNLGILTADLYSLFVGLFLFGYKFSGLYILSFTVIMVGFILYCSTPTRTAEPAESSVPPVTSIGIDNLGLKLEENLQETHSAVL

SLC35E4 [4] = biological target: T3, SLC35E4
SLC5A7 = settings: read-out: KM of choline transport by SLC5A7; high-affinity choline transporter; ref [46]; cited from earlier work
SLC35F4 = biological target: T5, SLC35F4 (Homo sapiens, UniProt A4IF30)
T5 sequence (A4IF30 1-521): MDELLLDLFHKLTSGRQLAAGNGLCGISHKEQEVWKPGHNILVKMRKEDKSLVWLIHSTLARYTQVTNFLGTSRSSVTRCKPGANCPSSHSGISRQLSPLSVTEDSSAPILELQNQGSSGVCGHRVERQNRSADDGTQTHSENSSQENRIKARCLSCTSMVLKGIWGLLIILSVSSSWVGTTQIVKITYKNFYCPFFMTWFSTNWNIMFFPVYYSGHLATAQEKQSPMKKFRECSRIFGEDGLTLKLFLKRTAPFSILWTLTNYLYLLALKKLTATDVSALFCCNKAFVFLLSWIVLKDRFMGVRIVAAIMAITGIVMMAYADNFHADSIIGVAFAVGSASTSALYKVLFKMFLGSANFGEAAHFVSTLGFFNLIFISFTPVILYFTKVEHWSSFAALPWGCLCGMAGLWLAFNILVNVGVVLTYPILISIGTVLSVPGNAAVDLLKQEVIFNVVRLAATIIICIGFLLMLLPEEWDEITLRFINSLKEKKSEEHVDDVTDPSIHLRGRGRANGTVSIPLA

T1 sequence (Q8WWI5 whole entry): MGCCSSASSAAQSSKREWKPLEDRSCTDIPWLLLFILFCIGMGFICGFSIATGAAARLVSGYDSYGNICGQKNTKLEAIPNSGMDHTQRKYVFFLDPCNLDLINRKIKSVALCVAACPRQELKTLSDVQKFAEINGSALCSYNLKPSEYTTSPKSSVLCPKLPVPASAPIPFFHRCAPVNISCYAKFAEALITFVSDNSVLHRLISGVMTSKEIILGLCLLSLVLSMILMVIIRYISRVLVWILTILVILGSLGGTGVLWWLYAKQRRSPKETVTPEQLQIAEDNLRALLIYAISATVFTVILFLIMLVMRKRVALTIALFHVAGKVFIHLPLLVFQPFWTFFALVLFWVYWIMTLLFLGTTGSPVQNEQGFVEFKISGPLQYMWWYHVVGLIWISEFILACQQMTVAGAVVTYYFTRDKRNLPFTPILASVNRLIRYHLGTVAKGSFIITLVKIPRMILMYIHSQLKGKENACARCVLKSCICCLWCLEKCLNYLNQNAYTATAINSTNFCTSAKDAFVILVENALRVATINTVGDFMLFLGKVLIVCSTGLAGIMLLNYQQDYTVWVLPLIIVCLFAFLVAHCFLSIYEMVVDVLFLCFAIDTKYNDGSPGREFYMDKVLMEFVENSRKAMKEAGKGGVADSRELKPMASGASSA
SLC35E1, sequence (Q96K37 whole entry): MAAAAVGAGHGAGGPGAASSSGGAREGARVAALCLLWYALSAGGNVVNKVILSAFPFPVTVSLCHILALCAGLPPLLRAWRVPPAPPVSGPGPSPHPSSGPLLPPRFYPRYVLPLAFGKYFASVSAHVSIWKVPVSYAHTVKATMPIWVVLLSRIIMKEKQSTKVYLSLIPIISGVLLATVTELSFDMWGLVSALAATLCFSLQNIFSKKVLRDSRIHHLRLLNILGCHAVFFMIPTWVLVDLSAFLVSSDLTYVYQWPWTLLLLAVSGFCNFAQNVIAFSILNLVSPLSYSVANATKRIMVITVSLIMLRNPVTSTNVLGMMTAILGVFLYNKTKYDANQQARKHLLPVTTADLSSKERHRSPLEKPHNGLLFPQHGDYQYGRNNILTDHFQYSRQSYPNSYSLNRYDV
SLC35G4, sequence (P0C7Q5 whole entry): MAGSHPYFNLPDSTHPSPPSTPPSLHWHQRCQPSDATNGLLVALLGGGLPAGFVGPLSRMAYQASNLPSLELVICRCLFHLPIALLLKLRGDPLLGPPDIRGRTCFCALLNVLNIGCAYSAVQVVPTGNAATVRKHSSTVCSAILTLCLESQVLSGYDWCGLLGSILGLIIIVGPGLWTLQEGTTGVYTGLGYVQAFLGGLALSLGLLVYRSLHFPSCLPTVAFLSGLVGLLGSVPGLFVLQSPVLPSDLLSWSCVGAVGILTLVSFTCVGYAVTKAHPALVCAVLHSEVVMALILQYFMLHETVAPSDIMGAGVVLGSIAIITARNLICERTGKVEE
SLC35F3, sequence (Q8IY50 whole entry): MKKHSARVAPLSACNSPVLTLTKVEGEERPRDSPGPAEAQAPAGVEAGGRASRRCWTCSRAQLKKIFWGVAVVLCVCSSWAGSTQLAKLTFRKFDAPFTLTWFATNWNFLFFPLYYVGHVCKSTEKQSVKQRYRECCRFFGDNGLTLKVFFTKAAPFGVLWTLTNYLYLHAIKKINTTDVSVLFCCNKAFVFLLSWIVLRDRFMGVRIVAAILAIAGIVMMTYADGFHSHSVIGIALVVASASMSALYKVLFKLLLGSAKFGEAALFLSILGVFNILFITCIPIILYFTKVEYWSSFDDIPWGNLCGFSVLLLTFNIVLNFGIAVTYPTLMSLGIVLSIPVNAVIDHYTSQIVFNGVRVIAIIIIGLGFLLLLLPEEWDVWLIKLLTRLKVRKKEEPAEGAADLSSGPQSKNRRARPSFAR
SLC44A2, sequence (Q8IWA5 whole entry): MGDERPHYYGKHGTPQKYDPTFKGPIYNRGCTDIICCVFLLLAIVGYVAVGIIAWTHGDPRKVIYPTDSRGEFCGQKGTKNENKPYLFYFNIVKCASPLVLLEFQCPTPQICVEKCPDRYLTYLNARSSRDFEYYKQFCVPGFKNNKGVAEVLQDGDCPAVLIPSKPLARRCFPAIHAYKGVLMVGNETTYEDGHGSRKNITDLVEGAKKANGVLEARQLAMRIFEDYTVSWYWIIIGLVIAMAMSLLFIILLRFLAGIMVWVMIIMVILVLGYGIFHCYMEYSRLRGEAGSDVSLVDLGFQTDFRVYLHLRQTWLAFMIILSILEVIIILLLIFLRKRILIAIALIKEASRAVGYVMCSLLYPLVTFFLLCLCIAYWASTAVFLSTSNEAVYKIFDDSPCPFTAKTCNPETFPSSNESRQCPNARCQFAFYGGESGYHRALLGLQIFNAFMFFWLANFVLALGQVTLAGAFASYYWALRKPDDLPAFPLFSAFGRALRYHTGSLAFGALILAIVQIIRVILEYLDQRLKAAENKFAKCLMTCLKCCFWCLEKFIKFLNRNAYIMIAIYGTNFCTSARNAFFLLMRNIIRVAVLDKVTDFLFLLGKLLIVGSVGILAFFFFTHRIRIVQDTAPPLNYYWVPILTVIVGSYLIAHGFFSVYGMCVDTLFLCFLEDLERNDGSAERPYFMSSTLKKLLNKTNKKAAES
T2 sequence (Q9BZV2 whole entry): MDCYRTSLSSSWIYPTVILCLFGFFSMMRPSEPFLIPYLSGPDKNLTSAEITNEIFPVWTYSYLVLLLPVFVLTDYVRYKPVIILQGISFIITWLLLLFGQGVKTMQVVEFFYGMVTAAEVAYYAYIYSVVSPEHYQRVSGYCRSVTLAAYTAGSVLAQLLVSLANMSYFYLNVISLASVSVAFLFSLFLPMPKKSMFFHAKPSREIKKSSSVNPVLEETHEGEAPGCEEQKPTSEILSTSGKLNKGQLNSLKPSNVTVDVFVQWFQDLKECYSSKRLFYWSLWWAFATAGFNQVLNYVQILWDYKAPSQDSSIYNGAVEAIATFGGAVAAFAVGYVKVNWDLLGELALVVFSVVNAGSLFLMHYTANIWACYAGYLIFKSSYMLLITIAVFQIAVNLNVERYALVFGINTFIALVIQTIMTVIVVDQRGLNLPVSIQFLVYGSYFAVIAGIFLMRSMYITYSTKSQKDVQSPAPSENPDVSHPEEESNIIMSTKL

Structure (SMILES): C[N+](C)(C)CCO [Choline]
- Clint (±SEM) (SLC44A1 [1]): 2.08 (±1.79) μl × mg protein^-1 × min^-1
- Uptake by SLC19A3 (in words) (SLC19A3): transports
- Clint (±SEM) (SLC35F3): 1.21 (±1.36) μl × mg protein^-1 × min^-1
- Uptake by SLC35E4 (in words) (SLC35E4 [2]): moderate influx transport activity
- Uptake by SLC44A1 (CTL1) (in words) (SLC44A1 [3]): moderate choline uptake
- Uptake by SLC35E1 (in words) (SLC35E1): significantly enhanced
- Uptake by SLC35G4 (in words) (SLC35G4): extensively enhanced the cell uptake
- Uptake by SLC44A2 (CTL2) (in words) (SLC44A2): moderate choline uptake
- Clint (±SEM) (SLC35F2): 2.48 (±1.47) μl × mg protein^-1 × min^-1
- Clint (±SEM) (SLC35E4 [4]): 0.17 (±0.36) μl × mg protein^-1 × min^-1
- Km (SLC5A7): 2 µM
- Clint (±SEM) (SLC35F4): 1.32 (±1.74) μl × mg protein^-1 × min^-1
